≈ marks a conversion by molar mass, not a printed value.
Tests used:
[1] = tested on: Vero; assay: cells; conditions: Chlorocebus sabaeus
[2] = tested on: Vero; assay: cells; conditions: Chlorocebus sabaeus; remark: listed apart in the source
[3] = tested on: Vero; assay: cells; conditions: Chlorocebus sabaeus; remark: listed apart in the source
[4] = tested on: MDCK; assay: cells; conditions: Canis lupus familiaris
[5] = tested on: L1210; assay: cells; conditions: Mus musculus
[6] = molecular target: T1, Adenosylhomocysteinase (Homo sapiens, UniProt P23526)
Target sequence in this assay (P23526 whole entry): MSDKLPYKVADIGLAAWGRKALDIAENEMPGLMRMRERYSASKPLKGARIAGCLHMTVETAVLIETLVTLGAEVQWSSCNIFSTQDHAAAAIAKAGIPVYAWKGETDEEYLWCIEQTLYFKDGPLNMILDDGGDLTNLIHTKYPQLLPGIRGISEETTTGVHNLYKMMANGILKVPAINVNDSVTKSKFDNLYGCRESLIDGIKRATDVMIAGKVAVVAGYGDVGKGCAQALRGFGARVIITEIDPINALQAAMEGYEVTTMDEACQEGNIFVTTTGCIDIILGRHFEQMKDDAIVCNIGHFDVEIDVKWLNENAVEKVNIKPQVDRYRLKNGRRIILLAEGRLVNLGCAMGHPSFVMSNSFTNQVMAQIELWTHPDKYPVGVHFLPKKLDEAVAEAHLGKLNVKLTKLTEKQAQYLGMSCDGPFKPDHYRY

[7] = tested on: Vaccinia virus
[8] = tested on: Human alphaherpesvirus 1; assay: microbe, parasite or virus in culture
[9] = tested on: CCRF-CEM; assay: cells; conditions: Homo sapiens
[10] = tested on: MOLT-4; assay: cells; conditions: Homo sapiens
[11] = tested on: Human betaherpesvirus 5; assay: microbe, parasite or virus in culture
[12] = tested on: Vero; assay: cells; conditions: Chlorocebus sabaeus; remark: listed apart in the source
[13] = tested on: Human betaherpesvirus 5; assay: microbe, parasite or virus in culture; remark: listed apart in the source
[14] = tested on: HeLa; assay: Minimum inhibitory concentration required to effect a microscopically visible change of cell morphology in HeLa cell culture.; type: functional, Homo sapiens; design: unit not given here
[15] = tested on: Human alphaherpesvirus 2; assay: microbe, parasite or virus in culture
[16] = tested on: HeLa; assay: cells; conditions: Homo sapiens
[17] = tested on: Vero; assay: Minimum inhibitory concentration required to effect a microscopically visible change of cell morphology in Vero cell culture.; type: functional, Chlorocebus sabaeus; design: unit not given here
[18] = tested on: FM3A; assay: cells; conditions: Mus musculus
[19] = molecular target: T1, Adenosylhomocysteinase; remark: listed apart in the source
Target sequence in this assay (P23526 2-432 limits assumed): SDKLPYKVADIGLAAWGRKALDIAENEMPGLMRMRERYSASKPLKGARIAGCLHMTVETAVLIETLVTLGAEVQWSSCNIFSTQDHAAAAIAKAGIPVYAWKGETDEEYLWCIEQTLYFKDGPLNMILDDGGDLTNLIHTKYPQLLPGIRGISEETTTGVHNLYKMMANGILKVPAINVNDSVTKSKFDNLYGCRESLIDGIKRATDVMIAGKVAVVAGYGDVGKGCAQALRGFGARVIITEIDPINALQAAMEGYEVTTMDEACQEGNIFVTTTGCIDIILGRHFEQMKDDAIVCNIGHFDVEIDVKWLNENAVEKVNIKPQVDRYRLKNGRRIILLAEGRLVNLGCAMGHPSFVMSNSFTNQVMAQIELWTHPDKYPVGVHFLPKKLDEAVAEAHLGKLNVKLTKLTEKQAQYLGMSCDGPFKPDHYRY

[20] = tested on: E6SM; assay: Minimum inhibitory concentration required to effect a microscopically visible change of cell morphology in human embryonic skin-muscle (E6SM) cell culture.; type: functional; design: unit not given here
[21] = tested on: Human alphaherpesvirus 1; assay: microbe, parasite or virus in culture; remark: listed apart in the source
[22] = tested on: Vero; assay: cells; conditions: Chlorocebus sabaeus; remark: listed apart in the source
[23] = tested on: Respiratory syncytial virus; assay: microbe, parasite or virus in culture; conditions: human respiratory syncytial virus, HeLa
[24] = tested on: HeLa; assay: cells; conditions: Homo sapiens; remark: listed apart in the source
[25] = tested on: MDCK; assay: cells; conditions: Canis lupus familiaris; remark: listed apart in the source
[26] = tested on: Vero; assay: cells; conditions: Chlorocebus sabaeus; remark: listed apart in the source
[27] = tested on: HEL; assay: (§1) 50% Cytostatic concentration required to inhibit human erythroleukemic (HEL) cell proliferation; type: functional; design: unit not given here
[28] = tested on: Human alphaherpesvirus 1; assay: microbe, parasite or virus in culture; remark: listed apart in the source
[29] = tested on: MDCK; type: functional, Canis lupus familiaris; design: unit not given here
[30] = tested on: HEL; assay: as §1; type: functional
[31] = tested on: Human alphaherpesvirus 1; assay: microbe, parasite or virus in culture; remark: listed apart in the source
[32] = tested on: Human alphaherpesvirus 1; assay: microbe, parasite or virus in culture; remark: listed apart in the source

| SMILES | EC50 [1] | EC50 [2] | EC50 [3] | IC50 [5] | EC50 [7] | EC50 [8] | IC50 [9] | IC50 [10] | EC50 [11] | EC50 [12] | EC50 [13] | EC50 [15] | IC50 [18] | MIC [20] | EC50 [21] | EC50 [26] | CC50 [27] | EC50 [28] | other results |
| --- | --- | --- | --- | --- | --- | --- | --- | --- | --- | --- | --- | --- | --- | --- | --- | --- | --- | --- | --- |
| Nc1ncnc2c1ncn2C1O[C@H](/C=N/OCc2ccccc2)[C@@H](O)[C@H]1O (stereo partly drawn) | > 100 mg/L | > 100 mg/L | > 40 mg/L | 187 mg/L (≈ 505 µM) | 2 mg/L (≈ 5.4 µM) | > 40 mg/L | 136 mg/L (≈ 367 µM) | 118 mg/L (≈ 319 µM) | > 10 mg/L | > 100 mg/L | > 10 mg/L | > 40 mg/L | 340 mg/L (≈ 918 µM) | 100 | > 40 mg/L | > 100 mg/L | 33 | > 40 mg/L | EC50 [4]: 20 mg/L (≈ 54 µM); Ki [6]: 0.101 µM; MIC [14]: >200; EC50 [16]: > 200 mg/L; MIC [17]: >200; k2 [19]: 0.036 min⁻¹; EC50 [22]: > 100 mg/L; EC50 [23]: > 200 mg/L; EC50 [24]: > 200 mg/L; EC50 [25]: 20 mg/L (≈ 54 µM); MIC [29]: 100 |
| Nc1ncnc2c1ncn2C1OC(C=O)CC1O (stereo not drawn) | > 200 mg/L | > 200 mg/L | > 400 mg/L | > 200 mg/L | > 400 mg/L | > 100 mg/L | > 200 mg/L | > 200 mg/L | > 40 mg/L | > 400 mg/L | > 40 mg/L | > 400 mg/L | > 200 mg/L | >400 | > 400 mg/L | > 200 mg/L | >50 | > 400 mg/L |  |
| Nc1ncnc2c1ncn2C[C@H](O)CO [(S)-DHPA] | 70 mg/L (≈ 335 µM) | > 400 mg/L | 20 mg/L (≈ 95.6 µM) |  | 20 mg/L (≈ 95.6 µM) | > 400 mg/L |  |  |  | 70 mg/L (≈ 335 µM) |  | > 400 mg/L |  | >400 | > 400 mg/L | > 400 mg/L |  | > 40 mg/L |  |
| Nc1ncnc2c1ncn2C1CC(O)C(C=O)O1 (stereo not drawn) | > 200 mg/L | > 200 mg/L | > 400 mg/L | 6.64 mg/L (≈ 26.6 µM) | > 400 mg/L | > 400 mg/L | 17.8 mg/L (≈ 71.4 µM) | 4.96 mg/L (≈ 19.9 µM) | > 40 mg/L | 70 mg/L (≈ 281 µM) | > 40 mg/L | > 400 mg/L | 50.9 mg/L (≈ 204 µM) | >400 | > 400 mg/L | > 200 mg/L | >50 | > 400 mg/L |  |
| Nc1ncnc2c1ncn2C1OC(/C=N/O)CC1O (stereo not drawn) | 300 mg/L (≈ 1140 µM) | > 400 mg/L | > 400 mg/L | 180 mg/L (≈ 681 µM) | 300 mg/L (≈ 1140 µM) | > 400 mg/L | 185 mg/L (≈ 700 µM) | > 200 mg/L | 40 mg/L (≈ 151 µM) | > 400 mg/L | 10 mg/L (≈ 37.8 µM) | > 400 mg/L | > 200 mg/L | >400 | > 400 mg/L | > 400 mg/L | >50 | > 400 mg/L |  |
| Nc1ncnc2c1ncn2[C@@H]1O[C@H](C=NO)[C@@H](O)[C@@H]1O | > 40 mg/L | > 40 mg/L | > 100 mg/L | 10.5 mg/L (≈ 37.5 µM) | 20 mg/L (≈ 71.4 µM) | > 100 mg/L | 15 mg/L (≈ 53.5 µM) | 16.4 mg/L (≈ 58.5 µM) | > 10 mg/L | > 40 mg/L | > 10 mg/L | > 100 mg/L | 12.7 mg/L (≈ 45.3 µM) | >200 | 70 mg/L (≈ 250 µM) | > 40 mg/L |  | 70 mg/L (≈ 250 µM) | CC50 [30]: 34 |
| Nc1ncnc2c1ncn2C1O[C@H](C(O)O)[C@@H](O)[C@@H]1O (stereo partly drawn) | 300 mg/L (≈ 1060 µM) | > 200 mg/L | > 400 mg/L | 156 mg/L (≈ 551 µM) | 20 mg/L (≈ 70.6 µM) |  | 118 mg/L (≈ 417 µM) | > 200 mg/L | > 40 mg/L | 150 mg/L (≈ 530 µM) | > 40 mg/L | > 400 mg/L | 125 mg/L (≈ 441 µM) | >400 | 300 mg/L (≈ 1060 µM) | > 200 mg/L | >50 |  | EC50 [31]: > 400 mg/L; EC50 [32]: > 400 mg/L |
| Nc1ncnc2c1ncn2C1CC(O)C(/C=N/O)O1 (stereo not drawn) | > 100 mg/L | > 100 mg/L | > 100 mg/L | 4.6 mg/L (≈ 17.4 µM) | > 100 mg/L | > 100 mg/L | 13.8 mg/L (≈ 52.2 µM) | 17 mg/L (≈ 64.3 µM) | 1 mg/L (≈ 3.78 µM) | > 100 mg/L | 0.6 mg/L (≈ 2.27 µM) | > 100 mg/L | 11.2 mg/L (≈ 42.4 µM) | 200 | > 100 mg/L | > 100 mg/L | 14 | > 100 mg/L |  |

Reference: ChEMBL document CHEMBL1130322, “Anticancer and antiviral effects and inactivation of S-adenosyl-L-homocysteine hydrolase with 5'-carboxaldehydes and oximes synthesized from adenosine and sugar-modified analogues” (J Med Chem, 1997)
